For series [1], the system named is mouse myopia-induced model. Description: Mouse myopia-induced model (−30 D minus lens): suppression of myopia induction. The following applies: for difference of variation in refractive value between lens-worn eyes and control eyes / difference of variation in axial length of the eye between lens-worn eyes and control eyes: 50 μM in PBS; for difference of variation in refractive value between lens-worn eyes and control eyes: FIG. 8A right graph; for difference of variation in axial length of the eye between lens-worn eyes and control eyes: FIG. 8B right graph; for refractive value variation of lens-worn myopia-induced eyes vs PBS administered group / axial length of the eye variation of lens-worn myopia-induced eyes vs PBS administered group: three weeks; for refractive value variation of lens-worn myopia-induced eyes vs PBS administered group: FIG. 6 left; for axial length of the eye variation of lens-worn myopia-induced eyes vs PBS administered group: FIG. 6 right.
Protocol: Specifically, the mouse myopia-induced model is prepared as follows. Because it is easier to induce myopia to a juvenile mouse, it is preferable to mount the minus lens as soon as possible after the weaning. A 3-week-old C57BL6J is used here. The mouse is anesthetized with three types-mixed anesthetic of Domitor (Nippon Zenyaku Kogyo Co., Ltd.), Betorphal (Meiji Seika Pharma Co., Ltd.), and Midazolam (Sandoz K. K.). The skull is then opened with scissors. A post 1 is erected in the skull and fixed with dental cement (Super-Bond, Sun Medical Co., Ltd.). The post is threaded to fix an adjusting instrument described later with a nut.
To induce myopia, −30 diopter (D) minus lens (Rainbow contact, Rainbow Optical Laboratory Co., Ltd.) 2 is mounted on one side, and 0 D lens or only frame 3 is mounted on the other side as a control. A protector 4 having a laterally projected shape is mounted to a frame part in the lower portion of the lens to prevent the mouse from damaging the lens with its forelegs or the like when mounting the lens to the mouse. The protector 4 prevents the mouse from touching the lens, causing no damages on the lens. The protector 4 used here is in the form mounted to the frame part and integrated with it, although it needs not be integrated with the lens as long as the mouse behavior will not damage the lens.
An adjusting instrument 5 is bonded to a frame part in the upper portion of the lens to adjust the width and angle of the mounted lens in response to the growth of the mouse. The adjusting instrument 5 is folded in a dog leg shape. The adjusting instrument 5 includes one side mounted with the lens and the other side provided with a slot 6 for mounting the adjusting instrument 5 to the post 1 erected in the head. Putting the post 1 over the slot 6 and screwing it with a nut 7 can adhere and fix the adjusting instrument 5 to the skin without compressing the periphery of both eyes of the mouse.
An adjustment mechanism including three parts of the post 1, the nut 7, and the adjusting instrument 5 can adjust the width and angle to bring the lens to the mouse eye position in response to the growth of the mouse. Further, because the lens is detachable, it is possible to measure the change over time of the axial length of the eye and the refractive value.
The left eye was worn with only a frame as a control and the right eye was worn with a −30 D lens for three weeks. The refractive value, the axial length of the eye, and the sclera thickness were measured to find the differences between before and after wearing them. The refractive value was measured with a refractometer (Infrared photorefractor for mice, made by Proffesor Schaeffel, University of Tubingen). The axial length of the eye was measured with an SD-OCT (Spectral-Domain Optical Coherence Tomography, Envisu R4310, Bioptigen Inc.). The sclera thickness was measured by obtaining an optical image of a hematoxylin and eosin (HE) stained paraffin piece by an optical microscope (BX53, Olympus Corporation) and then using an imaging software cellSens. The results were analyzed with ANOVA, Turky HSD.
Then, an analysis was conducted to check for suppression of myopia induction by administration of endoplasmic reticulum stress suppressant. […] Note that only phosphate-buffered saline (PBS) was administered to the control group.

For another series, the system named is mouse eye. Put plainly: Induction of myopia by eye drop of endoplasmic reticulum stress inducer. The class given is in vivo, C57BL6J mouse. To be noted: single eye drop, right eye, one week after administration, FIG. 7. The procedure:
Because the endoplasmic reticulum stress suppressant has a suppression effect on myopia induction as describe above, it is considered that the endoplasmic reticulum stress directly participates in myopia induction. Then, an analysis was conducted to check for induction of myopia by administration of an agent for inducing endoplasmic reticulum stress. The subject was a 3-week-old male C57BL6J mouse (n=12). The right eye of the mouse was administered once by eye drop with 50 μg/ml of tunicamycin (Tm) (Sigma-Aldrich Co. LLC) or 10 μM of thapsigargin (TG) (Wako Pure Chemical Industries, Ltd.), and the left eye was administered once by eye drop with PBS (Veh).

Setting [2] is: eye drop once a day, one week, n=3.
The mark [3] stands for this setting: 0.2% solution in PBS, eye drop once a day, n=4.
Where [4] appears, read: 2% solution in PBS, eye drop once a day, n=4.

These results are taken from US20240210736A1, “MOUSE MYOPIA-INDUCED MODEL AND ENDOPLASMIC RETICULUM STRESS SUPPRESSANT FOR PREVENTING AND SUPPRESSING MYOPIA” (TSUBOTA LABORATORY, INC., priority 2017, published 2024).

On to `Cc1cccc(CC(=O)N2CCc3c2ccc(-c2cn(C)c4ncnc(N)c24)c3F)n1` [GSK2656157], for which, in series [1] (setting [2]), the “difference of variation in refractive value between lens-worn eyes and control eyes” value was “significant decrease in difference of variation”; the “difference of variation in axial length of the eye between lens-worn eyes and control eyes” value is reported as “significant decrease in difference of variation”.
With `Cc1c(O)cccc1C(=O)N[C@@H](CSc1ccccc1)[C@H](O)CN1C[C@H]2CCCC[C@H]2C[C@H]1C(=O)NC(C)(C)C` [Nelfinavir], in series [1] (setting [2]), the “difference of variation in refractive value between lens-worn eyes and control eyes” value is given as “significant decrease in difference of variation”; the “difference of variation in axial length of the eye between lens-worn eyes and control eyes” value is recorded as “significant decrease in difference of variation”.
For `O=S(=O)(N=Cc1c(O)ccc2ccccc12)c1cccs1` [STF-083010], the “refractive value variation, lens-worn eye against lens-unworn control eye” value in series [1] (60 μM in PBS, eye drop once a day, one week, n=3, FIG. 8A) is reported as “showed significant changes”. Further, the “axial length of the eye variation, lens-worn eye against lens-unworn control eye” value in series [1] (60 μM in PBS, eye drop once a day, one week, n=3, FIG. 8B) was “showed significant changes”.
Consider `C[C@H](CCC(=O)NCCS(=O)(=O)O)[C@H]1CC[C@H]2[C@@H]3[C@@H](O)C[C@@H]4C[C@H](O)CC[C@]4(C)[C@H]3CC[C@]12C` [tauroursodeoxycholic acid, Tauroursodeoxycholic acid], for which the “changes in the refractive value, −30 D lens-worn eyes vs only frame-worn eyes” value in series [1] (100 mg/kg once a day intraperitoneal, one week after wearing the lens, n=4, FIG. 5 left) is “no differences were recognized between both types of eyes”. The “changes in the axial length of the eye of myopia-induced eyes vs PBS administered group” value in series [1] (100 mg/kg once a day intraperitoneal, one week after wearing the lens, n=4, FIG. 5 right) is “significant changes were recognized in the axial length of the eye”.
As to `C/C=C(/C)C(=O)O[C@H]1C(C)=C2[C@H]([C@@H]1OC(=O)CCCCCCC)[C@@](C)(OC(C)=O)C[C@H](OC(=O)CCC)[C@@]1(O)[C@H]2OC(=O)[C@@]1(C)O` [thapsigargin], in the series on mouse eye (10 μM), the “axial length of the eye variation vs PBS administered eyes (myopia induction)” value was “significant differences were recognized” and the “refractive value variation vs PBS administered eyes (myopia induction)” value is recorded as “significant differences were recognized”.
As for sodium phenylbutyrate, in series [1] (setting [3]), the “refractive value variation of lens-worn myopia-induced eyes vs PBS administered group” value is “showed a tendency to suppress changes” and the “axial length of the eye variation of lens-worn myopia-induced eyes vs PBS administered group” value was “showed a tendency to suppress changes”. Besides, in series [1] (200 mg/kg/day intraperitoneal, day 2 to 21 after wearing the lens, measured on day 21, FIG. 4A), the “variation in the refractive value, −30 D lens-worn eyes vs only frame-worn eyes” value was “no changes were recognized in the refractive value”. Also, the “changes in the axial length of the eye, minus lens-worn eyes vs only frame-worn eyes” value in series [1] (200 mg/kg/day intraperitoneal, day 2 to 21 after wearing the lens, measured on day 21, FIG. 4B) is listed as “no difference was recognized in the extension”. In addition, the “extension of the normal axial length of the eye associated with the growth” value in series [1] (200 mg/kg/day intraperitoneal, one week and three weeks after wearing the lens, FIG. 4C) was “does not affect the extension of the normal axial length of the eye associated with the growth”. Further, in series [1] (setting [4]), the “refractive value variation of lens-worn myopia-induced eyes vs PBS administered group” value was “significant differences were recognized” and the “axial length of the eye variation of lens-worn myopia-induced eyes vs PBS administered group” value is recorded as “significant differences were recognized”.
Turning to tunicamycin, in the series with mouse eye (50 μg/ml), the “axial length of the eye variation vs PBS administered eyes (myopia induction)” value was “significant differences were recognized” and the “refractive value variation vs PBS administered eyes (myopia induction)” value was “significant differences were recognized”.
